The values that follow come from US12187679B2, “Hydroxylated psilocybin derivatives and methods of using” (Enveric Biosciences Canada Inc., priority 2020, dated 2025).

The structures appear in SMILES notation.

One assay has as its target 5-HT2A receptor (Homo sapiens, UniProt P28223). Nature of the assay: Fluo-8 calcium release assay, serotonin with and without compound (positive allosteric modulation), +5-HT2A cells. It is filed as cell-based. Conditions: serotonin 3 uM with compound 3 uM, FIG. 8C. The text has this:
(§1) Cell lines for pharmacology assays. CHO-K1/Galpha15 (GenScript, M00257) (−5-HT2A) and CHO-K1/5-HT2A (GenScript, M00250) (+5-HT2A) cells lines were used in both toxicology/growth inhibition (MTT) and calcium release assays. Briefly, CHO-K1/Galpha15 is a control cell line that constitutively expresses Galpha15 which is a promiscuous Gq protein. It is engineered as a host cell, allowing transfected receptor(s) to signal through the Gq signal transduction pathway and mobilize intracellular calcium from the endoplasmic reticulum (ER). These control cells lack any transgene encoding 5-HT2A receptors, thus preventing calcium mobilization in response to 5-HT2A activation. Conversely, CHO-K1/5-HT2A cells stably express 5-HT2A receptor in the CHO-K1 host background. […]
(§2) Increase in cytosolic calcium concentration by 5-HT2A activation and assessment of modulation. Changes in intracellular calcium concentration due to the treatment with assay compounds was measured using Fluo-8 dye (Abcam, #ab112129) according to the manufacturer's instructions. […] Fluorescence (ex 490 nm/em 525 nm) obtained after the addition of molecules was expressed relative to values obtained before addition of the molecules (relative Fluo-8 fluorescence=Fmax/F0, where Fmax=maximum fluorescence and F0=baseline fluorescence). Fluorescence intensities were measured using a Spectramax ID3 plate reader (www.moleculardevices.com). […]

Assay [1] deals with CHO-K1/Galpha15 cells lacking 5-HT2A. Description: Fluo-8 calcium release control assay in -5-HT2A cells. It is filed as cell-based, Chinese Hamster. The note with it: FIG. 8D panel A.
Description: as §1, §2

5-HT2A receptor, sequence (P28223 whole entry): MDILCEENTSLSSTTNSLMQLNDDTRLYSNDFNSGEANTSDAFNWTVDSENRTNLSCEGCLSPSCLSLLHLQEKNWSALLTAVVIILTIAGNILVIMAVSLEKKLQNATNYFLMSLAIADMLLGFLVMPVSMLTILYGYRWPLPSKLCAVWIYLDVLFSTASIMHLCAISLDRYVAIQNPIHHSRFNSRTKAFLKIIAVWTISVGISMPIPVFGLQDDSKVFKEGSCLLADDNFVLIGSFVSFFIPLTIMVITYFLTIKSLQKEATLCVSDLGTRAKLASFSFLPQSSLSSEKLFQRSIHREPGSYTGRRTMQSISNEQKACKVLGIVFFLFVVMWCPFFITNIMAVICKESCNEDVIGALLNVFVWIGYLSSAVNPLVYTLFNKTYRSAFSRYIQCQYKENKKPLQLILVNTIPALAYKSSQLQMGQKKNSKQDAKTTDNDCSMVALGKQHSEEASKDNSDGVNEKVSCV

With `CC(=O)NCCc1c[nH]c2c(C)ccc(O)c12` [compound (IV), N-[2-(4-hydroxy-7-methyl-1H-indol-3-yl)ethyl]acetamide], the “time-dependent calcium flux (relative fluorescence, RFU) in response to serotonin with compound vs serotonin alone” value at 5-HT2A receptor was “elevated flux”.
Consider `NCCc1c[nH]c2ccc(O)cc12` [serotonin, 5-hydroxytryptamine], for which the “calcium response (relative Fluo-8 fluorescence)” value in assay [1] is on record as “did not exhibit a response”.
